Source: US7838468B2, “High molecular weight polyamine salts as clay stabilizing agents” (Baker Hughes Incorporated, priority 2003, dated 2010)

Assay: permeability of Bandera sandstone (clay stabilization)
Conditions: API standard brine and tap water, 150° F. (66° C.)
Protocol: FIG. 1 is a graph of the effect of TMAC and Tap Water on the permeability of Bandera Sandstone at 150° F. (66° C.);
FIG. 2 is a graph of the effect of A4819 and Tap Water on the permeability of Bandera Sandstone at 150° F. (66° C.); and
FIG. 3 is a graph of the effect of A4840 and Tap Water on the permeability of Bandera Sandstone at 150° F. (66° C.).
The products TMAC (tetramethylammonium chloride), A4819 and A4840 were tested on an API standard brine and tap water on Bandera sandstone for permeability.

C[N+](C)(C)C.[Cl-] [TMAC, tetramethylammonium chloride]
maintaining permeability (measure that the clay is stable): performed well
